Measurements: PMC4457528, “Identification of Novel Small Molecule Inhibitors of Oncogenic RET Kinase” (PLoS ONE, 2015)
Like-named read-outs stand apart in the source and are kept apart here.

How the values were obtained:
Experiment in all cases: KinomeScan kinase panel, single concentration 10 µM
Type in all cases: binding
KinomeScan kinase panel [1] = biological target: T1, KinomeScan kinase panel (Homo sapiens, UniProt P00519, Q252H); conditions: 10 µM, read-out: score (%)
T1 construct: purchased DiscoveRx (KinomeScan)

KinomeScan kinase panel [2] = biological target: T2, KinomeScan kinase panel (Homo sapiens, UniProt Q13882); conditions: read-out: score (%)
T2 construct: purchased DiscoveRx (KinomeScan)

KinomeScan kinase panel [3] = biological target: T3, KinomeScan kinase panel (Homo sapiens, UniProt O14730); conditions: read-out: score (%)
T3 construct: purchased DiscoveRx (KinomeScan)
T3 sequence (O14730 1-519): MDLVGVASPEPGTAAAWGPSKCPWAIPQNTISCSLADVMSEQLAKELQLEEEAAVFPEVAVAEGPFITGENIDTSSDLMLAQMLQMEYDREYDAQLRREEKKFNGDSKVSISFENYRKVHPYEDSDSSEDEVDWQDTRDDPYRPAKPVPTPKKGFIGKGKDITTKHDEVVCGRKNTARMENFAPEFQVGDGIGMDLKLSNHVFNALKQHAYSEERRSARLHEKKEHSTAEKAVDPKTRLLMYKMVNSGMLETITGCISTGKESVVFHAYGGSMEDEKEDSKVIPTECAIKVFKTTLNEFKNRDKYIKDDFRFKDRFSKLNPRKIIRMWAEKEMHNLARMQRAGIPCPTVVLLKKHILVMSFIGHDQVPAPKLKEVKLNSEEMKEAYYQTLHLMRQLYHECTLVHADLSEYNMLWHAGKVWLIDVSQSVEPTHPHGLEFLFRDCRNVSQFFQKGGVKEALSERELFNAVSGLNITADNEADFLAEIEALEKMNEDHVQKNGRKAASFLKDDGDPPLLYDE

KinomeScan kinase panel [4] = biological target: T4, KinomeScan kinase panel (Homo sapiens, UniProt P07333); conditions: CSF1R, 10 µM; read-out: score (%)
T4 construct: purchased DiscoveRx (KinomeScan)

KinomeScan kinase panel [5] = biological target: T5, KinomeScan kinase panel (Homo sapiens, UniProt P54646); conditions: AMPK-alpha2, 10 µM; read-out: score (%)
T5 construct: purchased DiscoveRx (KinomeScan)

KinomeScan kinase panel [6] = biological target: T6, KinomeScan kinase panel (Homo sapiens, UniProt Q16288); conditions: 10 µM, read-out: score (%)
T6 construct: purchased DiscoveRx (KinomeScan)

KinomeScan kinase panel [7] = biological target: T7, KinomeScan kinase panel (Homo sapiens, UniProt P07332); conditions: FES, 10 µM; read-out: score (%)
T7 construct: purchased DiscoveRx (KinomeScan)

KinomeScan kinase panel [8] = biological target: T8, KinomeScan kinase panel (Homo sapiens, UniProt Q13555); conditions: CAMK2G, 10 µM; read-out: score (%)
T8 construct: purchased DiscoveRx (KinomeScan)

KinomeScan kinase panel [9] = biological target: T9, KinomeScan kinase panel (Homo sapiens, UniProt O95819); conditions: MAP4K4, 10 µM; read-out: score (%)
T9 construct: purchased DiscoveRx (KinomeScan)

KinomeScan kinase panel [10] = biological target: T10, KinomeScan kinase panel (Homo sapiens, UniProt Q13237); conditions: read-out: score (%)
T10 construct: purchased DiscoveRx (KinomeScan)
T10 sequence (Q13237 1-762): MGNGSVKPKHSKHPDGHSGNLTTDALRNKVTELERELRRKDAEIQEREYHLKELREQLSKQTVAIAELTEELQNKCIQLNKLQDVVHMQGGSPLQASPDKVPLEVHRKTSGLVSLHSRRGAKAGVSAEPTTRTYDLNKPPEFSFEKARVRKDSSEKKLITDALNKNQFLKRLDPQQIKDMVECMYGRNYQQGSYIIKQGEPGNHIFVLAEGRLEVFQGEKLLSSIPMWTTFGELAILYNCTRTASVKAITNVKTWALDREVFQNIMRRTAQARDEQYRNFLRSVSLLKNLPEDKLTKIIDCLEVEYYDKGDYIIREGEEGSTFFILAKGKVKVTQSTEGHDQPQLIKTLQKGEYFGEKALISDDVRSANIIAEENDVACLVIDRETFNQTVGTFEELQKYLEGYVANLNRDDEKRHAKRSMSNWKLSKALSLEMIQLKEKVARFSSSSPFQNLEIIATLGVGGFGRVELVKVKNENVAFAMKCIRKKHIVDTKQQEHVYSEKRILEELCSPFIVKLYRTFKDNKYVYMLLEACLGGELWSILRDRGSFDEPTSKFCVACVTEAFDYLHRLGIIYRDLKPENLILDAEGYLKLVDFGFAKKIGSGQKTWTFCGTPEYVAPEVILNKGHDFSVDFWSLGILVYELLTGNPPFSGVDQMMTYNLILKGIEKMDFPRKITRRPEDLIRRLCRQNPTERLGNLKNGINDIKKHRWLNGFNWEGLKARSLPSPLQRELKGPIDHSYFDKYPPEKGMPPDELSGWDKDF

KinomeScan kinase panel [11] = biological target: T11, KinomeScan kinase panel (Homo sapiens, UniProt P15056, V600E); conditions: BRAF(V600E), 10 µM; read-out: score (%)
T11 construct: purchased DiscoveRx (KinomeScan)

KinomeScan kinase panel [12] = biological target: T12, KinomeScan kinase panel (Homo sapiens, UniProt P29376); conditions: LTK, 10 µM; read-out: score (%)
T12 construct: purchased DiscoveRx (KinomeScan)

KinomeScan kinase panel [13] = biological target: T13, KinomeScan kinase panel (Homo sapiens, UniProt O94768); conditions: DRAK2, 10 µM; read-out: score (%)
T13 construct: purchased DiscoveRx (KinomeScan)
T13 sequence (O94768 1-372): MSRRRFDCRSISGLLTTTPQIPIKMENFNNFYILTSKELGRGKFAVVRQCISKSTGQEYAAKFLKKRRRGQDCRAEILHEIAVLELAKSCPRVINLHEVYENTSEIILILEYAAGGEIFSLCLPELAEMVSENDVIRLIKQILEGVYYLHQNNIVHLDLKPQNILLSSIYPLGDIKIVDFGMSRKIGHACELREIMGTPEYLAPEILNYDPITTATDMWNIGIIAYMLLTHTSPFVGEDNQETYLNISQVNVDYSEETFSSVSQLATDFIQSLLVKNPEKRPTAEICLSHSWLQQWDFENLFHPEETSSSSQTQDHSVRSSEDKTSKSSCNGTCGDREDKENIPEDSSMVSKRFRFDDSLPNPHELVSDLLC

T12 sequence (P29376 17-864): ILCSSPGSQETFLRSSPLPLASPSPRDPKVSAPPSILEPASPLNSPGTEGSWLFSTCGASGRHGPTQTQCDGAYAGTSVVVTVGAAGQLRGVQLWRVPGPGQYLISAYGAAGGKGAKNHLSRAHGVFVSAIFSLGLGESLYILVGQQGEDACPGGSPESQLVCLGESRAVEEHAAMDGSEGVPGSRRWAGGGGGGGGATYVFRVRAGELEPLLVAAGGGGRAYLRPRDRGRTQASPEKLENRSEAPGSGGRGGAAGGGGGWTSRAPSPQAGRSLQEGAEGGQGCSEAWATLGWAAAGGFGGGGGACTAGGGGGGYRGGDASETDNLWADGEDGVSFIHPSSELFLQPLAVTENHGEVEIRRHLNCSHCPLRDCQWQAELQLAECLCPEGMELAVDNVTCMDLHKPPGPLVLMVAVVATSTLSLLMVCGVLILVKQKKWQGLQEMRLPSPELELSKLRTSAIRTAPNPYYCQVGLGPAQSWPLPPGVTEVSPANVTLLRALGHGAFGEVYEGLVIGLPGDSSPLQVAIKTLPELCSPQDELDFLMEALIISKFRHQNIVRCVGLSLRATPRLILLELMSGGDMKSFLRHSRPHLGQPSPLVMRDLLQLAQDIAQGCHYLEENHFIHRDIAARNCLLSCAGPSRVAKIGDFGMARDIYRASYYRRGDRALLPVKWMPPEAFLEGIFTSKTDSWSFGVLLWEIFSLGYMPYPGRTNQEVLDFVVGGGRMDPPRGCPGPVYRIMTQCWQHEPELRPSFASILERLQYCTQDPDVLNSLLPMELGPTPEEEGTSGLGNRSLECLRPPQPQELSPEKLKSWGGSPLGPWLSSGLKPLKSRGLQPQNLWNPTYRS
T8 sequence (Q13555 whole entry): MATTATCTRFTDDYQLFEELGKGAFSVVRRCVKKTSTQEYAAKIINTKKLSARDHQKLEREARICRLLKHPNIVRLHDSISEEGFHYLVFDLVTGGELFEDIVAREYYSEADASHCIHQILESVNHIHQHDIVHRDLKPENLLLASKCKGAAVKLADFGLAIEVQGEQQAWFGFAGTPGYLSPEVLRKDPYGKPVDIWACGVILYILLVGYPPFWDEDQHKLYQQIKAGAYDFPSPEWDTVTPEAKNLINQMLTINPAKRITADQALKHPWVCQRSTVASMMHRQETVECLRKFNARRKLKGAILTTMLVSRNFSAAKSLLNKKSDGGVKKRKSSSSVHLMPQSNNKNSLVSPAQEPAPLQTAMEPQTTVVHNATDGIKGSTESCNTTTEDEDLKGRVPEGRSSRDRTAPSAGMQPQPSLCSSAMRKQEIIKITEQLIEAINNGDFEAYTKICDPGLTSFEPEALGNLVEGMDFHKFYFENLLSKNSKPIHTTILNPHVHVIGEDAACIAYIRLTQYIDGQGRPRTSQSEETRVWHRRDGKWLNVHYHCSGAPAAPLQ
T7 sequence (P07332 whole entry): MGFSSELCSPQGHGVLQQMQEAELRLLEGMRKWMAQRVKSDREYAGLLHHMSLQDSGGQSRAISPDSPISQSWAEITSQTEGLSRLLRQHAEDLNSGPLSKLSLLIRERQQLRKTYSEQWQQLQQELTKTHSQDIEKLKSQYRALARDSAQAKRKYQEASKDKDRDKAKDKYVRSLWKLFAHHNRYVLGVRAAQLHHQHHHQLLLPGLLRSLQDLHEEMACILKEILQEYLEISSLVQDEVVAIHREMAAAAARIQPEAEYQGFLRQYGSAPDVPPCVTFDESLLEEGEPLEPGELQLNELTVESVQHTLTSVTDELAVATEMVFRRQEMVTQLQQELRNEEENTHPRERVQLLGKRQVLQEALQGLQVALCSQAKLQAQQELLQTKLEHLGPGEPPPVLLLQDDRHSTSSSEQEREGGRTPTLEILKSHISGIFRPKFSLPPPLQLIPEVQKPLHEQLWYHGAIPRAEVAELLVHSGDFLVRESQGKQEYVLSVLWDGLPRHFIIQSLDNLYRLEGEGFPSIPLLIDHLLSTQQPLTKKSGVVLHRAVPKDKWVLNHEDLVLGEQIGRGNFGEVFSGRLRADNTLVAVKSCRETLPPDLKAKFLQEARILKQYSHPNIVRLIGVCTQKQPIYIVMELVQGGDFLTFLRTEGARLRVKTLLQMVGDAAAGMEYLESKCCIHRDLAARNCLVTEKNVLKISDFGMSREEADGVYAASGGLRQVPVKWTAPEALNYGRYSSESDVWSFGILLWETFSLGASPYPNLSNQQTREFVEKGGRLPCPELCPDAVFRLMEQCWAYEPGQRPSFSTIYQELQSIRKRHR
T5 sequence (P54646 whole entry): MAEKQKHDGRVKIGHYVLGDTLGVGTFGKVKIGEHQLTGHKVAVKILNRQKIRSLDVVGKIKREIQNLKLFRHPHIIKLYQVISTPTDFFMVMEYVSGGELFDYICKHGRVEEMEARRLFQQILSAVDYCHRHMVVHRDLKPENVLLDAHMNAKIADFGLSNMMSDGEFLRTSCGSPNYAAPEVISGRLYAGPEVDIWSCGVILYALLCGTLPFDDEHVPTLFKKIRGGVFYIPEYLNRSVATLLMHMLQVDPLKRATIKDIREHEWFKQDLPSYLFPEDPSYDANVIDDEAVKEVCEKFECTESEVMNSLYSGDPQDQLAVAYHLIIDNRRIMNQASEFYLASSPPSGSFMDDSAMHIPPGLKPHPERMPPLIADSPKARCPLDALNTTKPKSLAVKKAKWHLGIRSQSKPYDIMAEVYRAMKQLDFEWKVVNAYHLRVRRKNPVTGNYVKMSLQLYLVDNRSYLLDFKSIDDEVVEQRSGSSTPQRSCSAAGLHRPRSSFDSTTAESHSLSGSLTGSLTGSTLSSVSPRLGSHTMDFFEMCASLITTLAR
T9 sequence (O95819 whole entry): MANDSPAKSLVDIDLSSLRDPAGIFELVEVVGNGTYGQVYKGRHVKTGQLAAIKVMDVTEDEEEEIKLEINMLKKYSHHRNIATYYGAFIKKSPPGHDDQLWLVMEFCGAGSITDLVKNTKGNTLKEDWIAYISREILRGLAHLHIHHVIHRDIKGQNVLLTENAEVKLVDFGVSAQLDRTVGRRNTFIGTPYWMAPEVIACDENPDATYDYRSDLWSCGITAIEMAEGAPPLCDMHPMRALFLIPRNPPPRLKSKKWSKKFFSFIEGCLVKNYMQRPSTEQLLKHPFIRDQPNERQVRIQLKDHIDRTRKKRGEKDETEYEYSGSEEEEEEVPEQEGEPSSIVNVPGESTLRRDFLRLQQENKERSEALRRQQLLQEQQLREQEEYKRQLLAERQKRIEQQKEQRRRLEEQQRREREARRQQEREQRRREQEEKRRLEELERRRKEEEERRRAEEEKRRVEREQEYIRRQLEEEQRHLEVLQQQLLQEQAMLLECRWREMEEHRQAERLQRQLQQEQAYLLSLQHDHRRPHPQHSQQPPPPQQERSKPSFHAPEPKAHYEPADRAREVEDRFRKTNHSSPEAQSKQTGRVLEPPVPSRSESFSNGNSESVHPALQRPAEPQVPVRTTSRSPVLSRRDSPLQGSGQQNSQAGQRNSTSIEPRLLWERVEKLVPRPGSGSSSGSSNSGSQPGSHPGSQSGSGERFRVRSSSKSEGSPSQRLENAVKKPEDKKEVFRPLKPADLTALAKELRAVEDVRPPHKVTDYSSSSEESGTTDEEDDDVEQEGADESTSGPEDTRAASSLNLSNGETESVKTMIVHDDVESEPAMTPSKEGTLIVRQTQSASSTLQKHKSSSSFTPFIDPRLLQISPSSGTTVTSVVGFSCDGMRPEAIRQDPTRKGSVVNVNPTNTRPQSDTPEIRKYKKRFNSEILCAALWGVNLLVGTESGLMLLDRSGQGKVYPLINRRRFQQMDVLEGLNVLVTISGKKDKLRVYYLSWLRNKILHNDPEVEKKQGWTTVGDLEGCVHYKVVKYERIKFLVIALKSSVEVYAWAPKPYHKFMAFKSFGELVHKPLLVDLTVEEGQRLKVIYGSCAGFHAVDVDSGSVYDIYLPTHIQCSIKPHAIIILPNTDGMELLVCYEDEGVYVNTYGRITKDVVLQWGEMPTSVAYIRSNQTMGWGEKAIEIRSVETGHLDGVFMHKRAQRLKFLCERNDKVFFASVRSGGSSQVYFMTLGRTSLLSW
T4 sequence (P07333 20-972): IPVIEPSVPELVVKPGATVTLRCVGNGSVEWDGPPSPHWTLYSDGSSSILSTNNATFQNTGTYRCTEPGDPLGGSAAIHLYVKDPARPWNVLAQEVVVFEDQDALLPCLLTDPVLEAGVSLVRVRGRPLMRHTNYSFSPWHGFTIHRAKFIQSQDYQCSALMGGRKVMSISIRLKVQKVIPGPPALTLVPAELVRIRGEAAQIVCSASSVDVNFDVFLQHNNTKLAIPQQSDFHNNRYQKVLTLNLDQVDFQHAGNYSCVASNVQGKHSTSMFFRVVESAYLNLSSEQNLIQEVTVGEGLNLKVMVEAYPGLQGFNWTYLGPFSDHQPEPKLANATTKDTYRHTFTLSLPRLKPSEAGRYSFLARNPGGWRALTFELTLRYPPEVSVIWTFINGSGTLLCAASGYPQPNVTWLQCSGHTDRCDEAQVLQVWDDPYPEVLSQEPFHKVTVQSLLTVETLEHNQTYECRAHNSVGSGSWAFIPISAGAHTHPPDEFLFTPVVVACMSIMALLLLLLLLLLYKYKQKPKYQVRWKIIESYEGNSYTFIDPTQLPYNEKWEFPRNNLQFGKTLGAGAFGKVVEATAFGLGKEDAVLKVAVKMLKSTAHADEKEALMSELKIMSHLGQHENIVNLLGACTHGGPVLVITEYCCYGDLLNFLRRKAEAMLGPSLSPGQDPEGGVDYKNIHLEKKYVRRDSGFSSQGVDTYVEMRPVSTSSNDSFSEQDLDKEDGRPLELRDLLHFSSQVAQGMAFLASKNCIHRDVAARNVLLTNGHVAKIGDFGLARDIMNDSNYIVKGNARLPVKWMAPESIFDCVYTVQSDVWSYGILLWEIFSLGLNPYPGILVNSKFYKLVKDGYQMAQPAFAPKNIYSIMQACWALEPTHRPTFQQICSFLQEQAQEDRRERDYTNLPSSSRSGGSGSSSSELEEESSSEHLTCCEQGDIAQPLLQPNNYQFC

| SMILES | remaining binding at 10 µM (KinomeScan kinase panel [1]; ABL1(Q252H)) [%] | remaining binding at 10 µM (KinomeScan kinase panel [2]; BRK, 10 µM) [%] | remaining binding at 10 µM (KinomeScan kinase panel [3]; RIOK3, 10 µM) [%] | remaining binding at 10 µM (KinomeScan kinase panel [4]) [%] | remaining binding at 10 µM (KinomeScan kinase panel [5]) [%] | remaining binding at 10 µM (KinomeScan kinase panel [6]; kinase TRKC) [%] | remaining binding at 10 µM (KinomeScan kinase panel [7]) [%] | remaining binding at 10 µM (KinomeScan kinase panel [8]) [%] | remaining binding at 10 µM (KinomeScan kinase panel [9]) [%] | remaining binding at 10 µM (KinomeScan kinase panel [10]; PRKG2, 10 µM) [%] | remaining binding at 10 µM (KinomeScan kinase panel [11]) [%] | remaining binding at 10 µM (KinomeScan kinase panel [12]) [%] | remaining binding at 10 µM (KinomeScan kinase panel [13]) [%] | remaining binding at 10 µM (KinomeScan kinase panel [1]; ABL1(Q252H)-nonphosphorylated) [%] | remaining binding at 10 µM (KinomeScan kinase panel [1]; ABL1(Q252H)-phosphorylated) [%] | remaining binding at 10 µM (KinomeScan kinase panel [3]; kinase RIOK3, 10 µM) [%] | remaining binding at 10 µM (KinomeScan kinase panel [10]; kinase PRKG2, 10 µM) [%] | remaining binding at 10 µM (KinomeScan kinase panel [2]; PTK6, 10 µM) [%] | remaining binding at 10 µM (KinomeScan kinase panel [6]; TRKC) [%] |
| --- | --- | --- | --- | --- | --- | --- | --- | --- | --- | --- | --- | --- | --- | --- | --- | --- | --- | --- | --- |
| CCN1CCN(Cc2ccc(NC(=O)c3ccc(C)c(NC(=O)c4cncc(-c5cccs5)c4)c3)cc2C(F)(F)F)CC1 [ALW-II-41-27] | 0.25 | 8.2 | > 30 | 0 | > 30 | 0.85 | 0.8 | > 30 | 6.4 | > 30 | 0.55 | > 30 | 31 |  |  |  |  |  |  |
| CCN1CCN(Cc2ccc(NC(=O)c3ccc(C)c(C#Cc4cccnc4)c3)cc2C(F)(F)F)CC1 [XMD15-44] |  | 2.8 |  | 0 | 18 | 0.35 | 0.75 | > 30 | 3.3 |  | 0.05 | 4.5 | > 30 | 6.4 | 0.7 | 70 | 97 |  |  |
| CCN1CCN(Cc2ccc(NC(=O)c3ccc(C)c(/C=C/c4cnc5[nH]ccc5c4Cl)c3)cc2C(F)(F)F)CC1 [HG-6-63-01, (E)-3-(2-(4-chloro-1H-pyrrolo[2,3-b]pyridin-5-yl)vinyl)-N-(4-((4-ethylpiperazin-1-yl)methyl)-3-(trifluoromethyl)phenyl)-4-methylbenzamide] | 0.1 |  | 0.35 | 0 | > 30 |  | 0.55 | > 30 | 0.3 | > 30 | 0.2 | > 30 | 1.6 |  |  |  |  | 17 | 5.3 |
